What was measured:
CDK1/CyclinB (h) = CDK1/CyclinB (h) (Homo sapiens, UniProt P06493); assay: CDK1/CyclinB human kinase inhibition, Invitrogen's FRET assay (Z'lyte); type: biochemical; details: read-out: CDK1 pIC50 (converted)
In short: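 Z'lyte FRET assay: human CDK1/CyclinB (0.2 μg/ml) with 2 μM Ser/Thr peptide 12 and 10 μM ATP in 50 mM Hepes pH 7.5, MgCl2, EGTA, Brij-35, 60 min at room temperature. Protease development 60 min, then emission ratio 460/538 nm read with excitation at 390 nm.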

PLK3 (h) = PLK3 (h) (Homo sapiens, UniProt Q9H4B4); assay: PLK3 human kinase inhibition, SPA; type: biochemical; details: read-out: PLK3 pIC50 (converted)
PLK3 (h), sequence (Q9H4B4 whole entry): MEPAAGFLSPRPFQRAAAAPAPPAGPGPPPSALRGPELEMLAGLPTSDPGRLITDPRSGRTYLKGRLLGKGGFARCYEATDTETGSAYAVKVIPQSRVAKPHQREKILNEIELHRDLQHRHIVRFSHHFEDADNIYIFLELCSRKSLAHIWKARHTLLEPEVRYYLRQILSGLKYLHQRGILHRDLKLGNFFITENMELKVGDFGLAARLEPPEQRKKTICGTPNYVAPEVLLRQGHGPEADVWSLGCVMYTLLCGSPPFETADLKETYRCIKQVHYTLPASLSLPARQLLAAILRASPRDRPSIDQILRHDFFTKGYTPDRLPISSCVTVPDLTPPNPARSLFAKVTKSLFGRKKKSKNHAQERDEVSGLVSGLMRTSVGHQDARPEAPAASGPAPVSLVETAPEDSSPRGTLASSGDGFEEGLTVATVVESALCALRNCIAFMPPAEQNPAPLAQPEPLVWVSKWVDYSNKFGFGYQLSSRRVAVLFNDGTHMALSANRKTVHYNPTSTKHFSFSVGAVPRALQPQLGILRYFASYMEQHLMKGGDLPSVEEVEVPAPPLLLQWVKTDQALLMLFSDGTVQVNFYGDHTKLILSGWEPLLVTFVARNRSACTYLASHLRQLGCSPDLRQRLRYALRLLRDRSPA
In short: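 SPA: PLK3 (h) at 30 μg/ml with 2 μM biotinylated peptide, 0.1 μM ATP plus 2 nM [γ-33P]ATP in 50 mM Hepes pH 8.0, 2 mM MnCl2 and 1 mM DTT. Incubated 20 min at room temperature, then stopped with EDTA and streptavidin PVT beads. Scintillation imaged on Leadseeker.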

PLK2 (h) = PLK2 (h) (Homo sapiens, UniProt Q9NYY3); assay: PLK2 human kinase inhibition, SPA; type: biochemical; details: read-out: PLK2 pIC50 (converted)
PLK2 (h), sequence (Q9NYY3 whole entry): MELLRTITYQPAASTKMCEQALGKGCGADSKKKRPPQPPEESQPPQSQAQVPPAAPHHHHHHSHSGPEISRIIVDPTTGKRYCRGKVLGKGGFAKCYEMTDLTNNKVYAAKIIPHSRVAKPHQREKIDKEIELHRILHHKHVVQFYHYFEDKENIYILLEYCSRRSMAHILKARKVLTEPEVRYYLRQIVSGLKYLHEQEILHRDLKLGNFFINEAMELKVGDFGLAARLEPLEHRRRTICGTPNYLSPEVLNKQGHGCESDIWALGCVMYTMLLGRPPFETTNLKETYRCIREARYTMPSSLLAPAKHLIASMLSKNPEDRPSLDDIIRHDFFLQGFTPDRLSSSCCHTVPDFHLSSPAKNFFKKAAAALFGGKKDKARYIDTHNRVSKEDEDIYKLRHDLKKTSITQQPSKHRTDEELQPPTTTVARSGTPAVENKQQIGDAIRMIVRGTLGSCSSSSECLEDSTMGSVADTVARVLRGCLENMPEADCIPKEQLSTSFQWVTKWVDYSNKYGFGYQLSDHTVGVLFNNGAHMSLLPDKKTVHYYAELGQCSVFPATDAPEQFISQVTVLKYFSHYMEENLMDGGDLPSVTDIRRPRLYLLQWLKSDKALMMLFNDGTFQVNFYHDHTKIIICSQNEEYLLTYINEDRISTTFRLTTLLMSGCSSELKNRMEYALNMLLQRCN
In short: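 SPA read on Leadseeker: PLK2 (30 μg/ml) with 2 μM biotinylated peptide, 0.1 μM ATP plus 2 nM [γ-33P]ATP in 50 mM Hepes pH 8.0, 2 mM MnCl2, 1 mM DTT. Reaction ran 20 min at room temperature, then EDTA stop and streptavidin PVT beads.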

H1299 = assay: Cellular proliferation assay (Alamar blue), H1299; type: cell-based; details: Homo sapiens, NCI-H1299; 10% FCS; 72 hours with compound; Alamar blue 4 h
In short: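 This proliferation assay on NCI-H1299 cells used an initial 24-hour compound-free incubation after seeding, followed by 72 hours of compound treatment with 10% FCS serum at 37° C. and 5% (v/v) CO2. Viable cells were quantified by a 4 h Alamar blue incubation and fluorescent plate reading at 544 nm/590 nm, and effects were expressed relative to control cells.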

A2780 = assay: Cellular proliferation assay (Alamar blue), A2780; type: cell-based; details: Homo sapiens, 10% FCS, 72 hours with compound, Alamar blue 24 h, read-out: A2780 (cellular proliferation assay, Table 4) (converted)
In short: (§1)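 24 h seeding without compound, 10% FCS, 37° C/5% CO2; 72 h compound; Alamar blue (resazurin 9 μg/ml, ferro-/ferricyanide 90 μM) 4 h HCT-116, 6 h U87-MG, 24 h A2780/MDA-MB-231; fluorescence 544/590 nm vs control cells.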

PLK1 T210D (h) = PLK1 T210D (h) (Homo sapiens, UniProt P53350, T210D); assay: PLK1 human kinase inhibition, SPA; type: biochemical; details: read-out: PLK1 pIC50 (converted)
PLK1 T210D (h), sequence (P53350 whole entry T210D): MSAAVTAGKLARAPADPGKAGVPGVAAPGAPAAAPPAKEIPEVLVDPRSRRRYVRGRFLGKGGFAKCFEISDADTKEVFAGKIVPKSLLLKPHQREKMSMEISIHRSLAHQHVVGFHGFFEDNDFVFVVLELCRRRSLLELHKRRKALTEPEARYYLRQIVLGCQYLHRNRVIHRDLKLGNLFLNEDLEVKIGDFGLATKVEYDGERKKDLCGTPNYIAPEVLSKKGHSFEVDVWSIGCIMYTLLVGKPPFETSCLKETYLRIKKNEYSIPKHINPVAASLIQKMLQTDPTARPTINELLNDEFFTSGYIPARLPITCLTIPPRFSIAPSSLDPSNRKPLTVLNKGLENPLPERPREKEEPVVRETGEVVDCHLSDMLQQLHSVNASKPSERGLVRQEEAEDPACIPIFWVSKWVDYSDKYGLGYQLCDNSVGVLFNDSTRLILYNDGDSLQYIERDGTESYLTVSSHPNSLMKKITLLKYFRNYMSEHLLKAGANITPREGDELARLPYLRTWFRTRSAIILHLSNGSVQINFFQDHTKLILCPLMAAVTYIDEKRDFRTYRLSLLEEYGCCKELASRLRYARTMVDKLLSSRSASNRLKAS
In short: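 Radiometric SPA with PLK1 T210D (0.125 ng/ml) in 50 mM Hepes pH 8.0, 2 mM MnCl2, 1 mM DTT, 2 μM biotinylated peptide, 0.1 μM ATP plus 2 nM [γ-33P]ATP. 40 min at room temperature, EDTA stop. Phosphorylated substrate captured on streptavidin PVT beads, scintillation imaged.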

PLK4 (h) = PLK4 (h) (Homo sapiens, UniProt O00444); assay: PLK-4 human kinase inhibition, scintillation proximity assay (SPA); type: biochemical; details: read-out: PLK4 pIC50 (converted)
PLK4 (h), sequence (O00444 whole entry): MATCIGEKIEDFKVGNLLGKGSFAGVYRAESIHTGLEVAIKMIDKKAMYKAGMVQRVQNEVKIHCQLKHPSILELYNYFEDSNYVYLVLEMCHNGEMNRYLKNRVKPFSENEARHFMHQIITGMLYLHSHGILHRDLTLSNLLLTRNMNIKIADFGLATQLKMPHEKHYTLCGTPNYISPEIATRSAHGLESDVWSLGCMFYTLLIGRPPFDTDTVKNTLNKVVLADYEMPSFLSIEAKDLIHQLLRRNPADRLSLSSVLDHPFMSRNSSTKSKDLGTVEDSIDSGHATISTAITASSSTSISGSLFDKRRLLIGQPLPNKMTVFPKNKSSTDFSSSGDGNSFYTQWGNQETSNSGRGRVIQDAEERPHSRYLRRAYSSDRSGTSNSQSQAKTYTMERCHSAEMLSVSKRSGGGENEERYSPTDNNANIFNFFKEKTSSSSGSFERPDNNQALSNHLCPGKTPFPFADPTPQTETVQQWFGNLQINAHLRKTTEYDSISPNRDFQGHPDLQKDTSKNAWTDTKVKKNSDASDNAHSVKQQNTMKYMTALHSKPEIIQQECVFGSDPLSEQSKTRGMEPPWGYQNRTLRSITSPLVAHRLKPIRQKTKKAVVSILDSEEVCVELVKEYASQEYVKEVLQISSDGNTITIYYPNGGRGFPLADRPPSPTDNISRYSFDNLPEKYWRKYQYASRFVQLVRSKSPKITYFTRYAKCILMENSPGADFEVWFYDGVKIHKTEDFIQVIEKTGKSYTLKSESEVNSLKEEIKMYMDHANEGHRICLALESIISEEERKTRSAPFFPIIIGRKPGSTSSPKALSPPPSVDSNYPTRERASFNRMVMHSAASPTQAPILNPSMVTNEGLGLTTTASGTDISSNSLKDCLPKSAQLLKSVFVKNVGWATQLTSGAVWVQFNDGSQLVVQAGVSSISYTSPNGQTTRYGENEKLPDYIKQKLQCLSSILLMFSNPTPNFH

U87-MG = assay: Cellular proliferation assay (Alamar blue), U87-MG; type: cell-based; details: Homo sapiens, U-87 MG; 10% FCS; 72 hours with compound; Alamar blue 6 h; read-out: U87-MG (cellular proliferation assay, Table 4) (converted)
In short: as §1

MDA-MB-231 = assay: Cellular proliferation assay (Alamar blue), MDA-MB-231; type: cell-based; details: Homo sapiens, 10% FCS, 72 hours with compound, Alamar blue 24 h, read-out: MDA/MB231 (cellular proliferation assay, Table 4) (converted)
In short: as §1

CDK1/CyclinB (h), sequence (P06493 whole entry): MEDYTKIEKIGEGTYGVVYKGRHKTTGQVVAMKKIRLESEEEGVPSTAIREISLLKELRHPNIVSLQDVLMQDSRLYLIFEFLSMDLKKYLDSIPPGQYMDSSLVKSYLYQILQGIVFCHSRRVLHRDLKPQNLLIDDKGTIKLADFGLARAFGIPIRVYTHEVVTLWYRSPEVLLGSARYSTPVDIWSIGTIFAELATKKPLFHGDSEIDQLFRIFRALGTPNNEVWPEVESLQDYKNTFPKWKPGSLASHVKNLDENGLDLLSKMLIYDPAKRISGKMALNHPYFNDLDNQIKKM
CDK1/CyclinB (h), sequence (P14635 whole entry partner): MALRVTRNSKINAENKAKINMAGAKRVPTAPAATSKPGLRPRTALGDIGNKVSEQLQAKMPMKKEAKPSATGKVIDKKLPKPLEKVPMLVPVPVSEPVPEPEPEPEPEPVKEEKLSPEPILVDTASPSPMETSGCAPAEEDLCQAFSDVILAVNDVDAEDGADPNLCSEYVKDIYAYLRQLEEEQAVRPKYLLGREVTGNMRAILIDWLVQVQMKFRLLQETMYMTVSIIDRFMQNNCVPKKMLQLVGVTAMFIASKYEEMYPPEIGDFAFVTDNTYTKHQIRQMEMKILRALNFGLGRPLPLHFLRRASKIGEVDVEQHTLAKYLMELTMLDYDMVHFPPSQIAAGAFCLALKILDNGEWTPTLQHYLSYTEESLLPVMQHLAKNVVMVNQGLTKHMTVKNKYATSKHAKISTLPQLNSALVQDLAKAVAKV

O=C1NCc2cc(ccc2N2CCOCC2)Nc2nccc(n2)-c2cccc(c2)CCCN2CCC[C@@H]12 [Compound 149]
IC50 (CDK1/CyclinB (h)): 0.00363 µM | IC50 (PLK3 (h)): > 10 µM | IC50 (PLK2 (h)): > 10 µM | IC50 (H1299): 0.832 µM | IC50 (A2780): 0.245 µM | IC50 (PLK1 T210D (h)): > 10 µM | IC50 (PLK4 (h)): 0.813 µM | IC50 (U87-MG): 0.251 µM | IC50 (MDA-MB-231): 0.501 µM

O=C1NCc2cccc(c2)-c2ccnc(n2)Nc2ccc(cc2)CN2CCC[C@@H]12 [Compound 54]
IC50 (CDK1/CyclinB (h)): > 10 µM | IC50 (PLK3 (h)): > 10 µM | IC50 (PLK2 (h)): > 10 µM | IC50 (H1299): > 10 µM | IC50 (A2780): > 10 µM | IC50 (PLK1 T210D (h)): > 10 µM | IC50 (PLK4 (h)): > 10 µM | IC50 (U87-MG): > 10 µM | IC50 (MDA-MB-231): > 10 µM

COc1cc2cc(c1)Nc1nccc(n1)-c1ccc(cc1)CN(C)CCCNC(=O)[C@@H]1CCCN1C2 [Compound 156]
IC50 (CDK1/CyclinB (h)): > 10 µM | IC50 (PLK3 (h)): 8.51 µM | IC50 (PLK2 (h)): > 3.02 µM | IC50 (H1299): > 10 µM | IC50 (A2780): > 10 µM | IC50 (PLK1 T210D (h)): > 10 µM | IC50 (PLK4 (h)): 0.912 µM | IC50 (U87-MG): > 10 µM | IC50 (MDA-MB-231): > 10 µM

O=C(NC1CCOCC1)c1cc2cc(c1)Nc1nccc(n1)-c1cccc(c1)CNC(=O)[C@@H]1CCCN1C2 [Compound 37]
IC50 (CDK1/CyclinB (h)): 5.37 µM | IC50 (PLK3 (h)): > 10 µM | IC50 (PLK2 (h)): > 10 µM | IC50 (H1299): > 10 µM | IC50 (A2780): > 10 µM | IC50 (PLK1 T210D (h)): > 10 µM | IC50 (PLK4 (h)): 0.245 µM | IC50 (U87-MG): > 10 µM | IC50 (MDA-MB-231): > 10 µM

O=C1NCc2cccc(c2)-c2ccnc(n2)Nc2cccc(c2)CN2CCC1CC2 [Compound 124]
IC50 (CDK1/CyclinB (h)): 0.372 µM | IC50 (PLK3 (h)): > 10 µM | IC50 (PLK2 (h)): > 10 µM | IC50 (H1299): > 10 µM | IC50 (A2780): > 10 µM | IC50 (PLK1 T210D (h)): > 10 µM | IC50 (PLK4 (h)): 8.71 µM | IC50 (U87-MG): 6.03 µM | IC50 (MDA-MB-231): > 10 µM

O=C1NCc2cccc(c2)-c2ccnc(n2)Nc2cc(ccc2Cl)CN2CCC[C@@H]12 [Compound 51]
IC50 (CDK1/CyclinB (h)): > 10 µM | IC50 (PLK3 (h)): > 10 µM | IC50 (PLK2 (h)): > 10 µM | IC50 (H1299): > 10 µM | IC50 (A2780): > 10 µM | IC50 (PLK1 T210D (h)): > 10 µM | IC50 (PLK4 (h)): > 10 µM | IC50 (U87-MG): > 10 µM | IC50 (MDA-MB-231): > 10 µM

COc1cc2cc(c1)Nc1nccc(n1)-c1ccc(OC)c(c1)CN(C)CCNC(=O)[C@H](CO)NC2 [Compound 107]
IC50 (CDK1/CyclinB (h)): > 10 µM | IC50 (PLK3 (h)): > 10 µM | IC50 (PLK2 (h)): > 10 µM | IC50 (H1299): > 10 µM | IC50 (A2780): > 10 µM | IC50 (PLK1 T210D (h)): > 10 µM | IC50 (PLK4 (h)): 0.589 µM | IC50 (U87-MG): 8.91 µM | IC50 (MDA-MB-231): > 10 µM

COc1cc2cc(c1OC)CN1CCC[C@H]1C(=O)NCc1cccc(c1)-c1ccnc(n1)N2 [Compound 23]
IC50 (CDK1/CyclinB (h)): > 10 µM | IC50 (PLK3 (h)): > 10 µM | IC50 (PLK2 (h)): > 10 µM | IC50 (H1299): > 10 µM | IC50 (A2780): > 10 µM | IC50 (PLK1 T210D (h)): > 10 µM | IC50 (PLK4 (h)): 0.0741 µM | IC50 (U87-MG): > 10 µM | IC50 (MDA-MB-231): > 10 µM

COc1cc2cc(c1OC)CN1CCC[C@H]1C(=O)N(C)CCN(C)c1cc(ccn1)-c1ccnc(n1)N2 [Compound 17]
IC50 (CDK1/CyclinB (h)): 8.13 µM | IC50 (PLK3 (h)): > 10 µM | IC50 (PLK2 (h)): > 10 µM | IC50 (H1299): > 10 µM | IC50 (A2780): > 10 µM | IC50 (PLK1 T210D (h)): > 10 µM | IC50 (PLK4 (h)): 2.69 µM | IC50 (U87-MG): > 10 µM | IC50 (MDA-MB-231): > 10 µM

CN1CCNC(=O)[C@H](CO)NCc2cccc(c2)Nc2nccc(n2)-c2ccc(cc2)C1 [Compound 114]
IC50 (CDK1/CyclinB (h)): > 10 µM | IC50 (PLK3 (h)): > 10 µM | IC50 (PLK2 (h)): ~3.02 µM | IC50 (H1299): > 10 µM | IC50 (A2780): > 10 µM | IC50 (PLK1 T210D (h)): > 10 µM | IC50 (PLK4 (h)): 1.2 µM | IC50 (U87-MG): > 10 µM | IC50 (MDA-MB-231): > 10 µM

COc1cc2cc(c1)Nc1nccc(n1)-c1ccc(OC)c(c1)CN(C)CCNC(=O)[C@@H]1CCCN1C2 [Compound 162]
IC50 (CDK1/CyclinB (h)): > 10 µM | IC50 (PLK3 (h)): > 10 µM | IC50 (PLK2 (h)): > 3.02 µM | IC50 (H1299): > 10 µM | IC50 (A2780): > 10 µM | IC50 (PLK1 T210D (h)): > 10 µM | IC50 (PLK4 (h)): 2.04 µM | IC50 (U87-MG): > 10 µM | IC50 (MDA-MB-231): > 10 µM

CN1CCN(C)c2ccc(cn2)-c2ccnc(n2)Nc2cc(c3c(c2)OCO3)CN2CCC[C@H]2C1=O [Compound 168]
IC50 (CDK1/CyclinB (h)): 8.13 µM | IC50 (PLK3 (h)): > 10 µM | IC50 (PLK2 (h)): > 10 µM | IC50 (H1299): > 10 µM | IC50 (A2780): > 10 µM | IC50 (PLK1 T210D (h)): > 10 µM | IC50 (PLK4 (h)): 3.55 µM | IC50 (U87-MG): 6.76 µM | IC50 (MDA-MB-231): > 10 µM

COc1ccc2cc1CN[C@@H](CO)C(=O)N(C)CCCN(C)c1ccc(cn1)-c1ccnc(n1)N2 [Compound 11]
IC50 (CDK1/CyclinB (h)): > 10 µM | IC50 (PLK3 (h)): > 10 µM | IC50 (PLK2 (h)): > 10 µM | IC50 (H1299): > 10 µM | IC50 (A2780): > 10 µM | IC50 (PLK1 T210D (h)): > 10 µM | IC50 (PLK4 (h)): 0.933 µM | IC50 (U87-MG): > 10 µM | IC50 (MDA-MB-231): > 10 µM

COc1ccc2cc1CN(C)CCNC(=O)[C@@H]1CCCN1Cc1cc(C#N)cc(c1)Nc1nccc-2n1 [Compound 181]
IC50 (CDK1/CyclinB (h)): > 10 µM | IC50 (PLK3 (h)): > 10 µM | IC50 (PLK2 (h)): > 10 µM | IC50 (H1299): > 10 µM | IC50 (A2780): > 10 µM | IC50 (PLK1 T210D (h)): > 10 µM | IC50 (PLK4 (h)): > 10 µM | IC50 (U87-MG): 9.12 µM | IC50 (MDA-MB-231): > 10 µM

— patent publication US8609836B2, “4-aryl-2-anilino-pyrimidines” (Janssen Pharmaceutica NV, priority 2008, dated 2013)
